Experiments:
[1] = target: Kinase suppressor of Ras 1 (Homo sapiens) (UniProt Q8IVT5); test: Inhibition of KSR1 activation Loop (SKNVFYDNGK) in human PBMC at 0.1 uM
[2] = target: Serine/threonine-protein kinase TBK1 (Homo sapiens) (UniProt Q9UHD2); test: Inhibition of TBK1 conserved Lys2 (DIKPGNIMR) in human PBMC at 0.1 uM
[3] = target: T1, Serine/threonine-protein kinase 3 (Homo sapiens) (UniProt Q13188); test: Inhibition of MST2 conserved Lys1 (ESGQVVAIKQVPVESDLQEIIK) in human PBMC at 1 uM
T1 sequence (whole entry): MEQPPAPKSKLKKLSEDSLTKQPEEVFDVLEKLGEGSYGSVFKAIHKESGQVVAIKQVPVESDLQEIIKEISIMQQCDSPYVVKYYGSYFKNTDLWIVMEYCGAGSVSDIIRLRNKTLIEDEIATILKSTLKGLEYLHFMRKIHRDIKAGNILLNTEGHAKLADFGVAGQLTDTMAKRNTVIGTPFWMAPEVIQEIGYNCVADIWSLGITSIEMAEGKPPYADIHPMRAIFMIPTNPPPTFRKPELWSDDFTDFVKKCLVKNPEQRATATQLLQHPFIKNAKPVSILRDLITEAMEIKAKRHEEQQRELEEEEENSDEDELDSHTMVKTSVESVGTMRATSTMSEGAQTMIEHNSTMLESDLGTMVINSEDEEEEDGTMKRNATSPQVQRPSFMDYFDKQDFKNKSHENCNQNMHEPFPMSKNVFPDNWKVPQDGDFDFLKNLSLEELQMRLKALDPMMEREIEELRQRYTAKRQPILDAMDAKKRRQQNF

[4] = target: Mitogen-activated protein kinase 12 (Homo sapiens) (UniProt P53778); test: Inhibition of p38g conserved Lys2 (DLKPGNLAVNEDCELK) in human PBMC at 0.1 uM
[5] = target: T2, Mitogen-activated protein kinase kinase kinase 5 (Homo sapiens) (UniProt Q99683); test: Inhibition of MAP3K5 conserved Lys1 (IAIKEIPER) in human PBMC at 1 uM
T2 sequence (whole entry): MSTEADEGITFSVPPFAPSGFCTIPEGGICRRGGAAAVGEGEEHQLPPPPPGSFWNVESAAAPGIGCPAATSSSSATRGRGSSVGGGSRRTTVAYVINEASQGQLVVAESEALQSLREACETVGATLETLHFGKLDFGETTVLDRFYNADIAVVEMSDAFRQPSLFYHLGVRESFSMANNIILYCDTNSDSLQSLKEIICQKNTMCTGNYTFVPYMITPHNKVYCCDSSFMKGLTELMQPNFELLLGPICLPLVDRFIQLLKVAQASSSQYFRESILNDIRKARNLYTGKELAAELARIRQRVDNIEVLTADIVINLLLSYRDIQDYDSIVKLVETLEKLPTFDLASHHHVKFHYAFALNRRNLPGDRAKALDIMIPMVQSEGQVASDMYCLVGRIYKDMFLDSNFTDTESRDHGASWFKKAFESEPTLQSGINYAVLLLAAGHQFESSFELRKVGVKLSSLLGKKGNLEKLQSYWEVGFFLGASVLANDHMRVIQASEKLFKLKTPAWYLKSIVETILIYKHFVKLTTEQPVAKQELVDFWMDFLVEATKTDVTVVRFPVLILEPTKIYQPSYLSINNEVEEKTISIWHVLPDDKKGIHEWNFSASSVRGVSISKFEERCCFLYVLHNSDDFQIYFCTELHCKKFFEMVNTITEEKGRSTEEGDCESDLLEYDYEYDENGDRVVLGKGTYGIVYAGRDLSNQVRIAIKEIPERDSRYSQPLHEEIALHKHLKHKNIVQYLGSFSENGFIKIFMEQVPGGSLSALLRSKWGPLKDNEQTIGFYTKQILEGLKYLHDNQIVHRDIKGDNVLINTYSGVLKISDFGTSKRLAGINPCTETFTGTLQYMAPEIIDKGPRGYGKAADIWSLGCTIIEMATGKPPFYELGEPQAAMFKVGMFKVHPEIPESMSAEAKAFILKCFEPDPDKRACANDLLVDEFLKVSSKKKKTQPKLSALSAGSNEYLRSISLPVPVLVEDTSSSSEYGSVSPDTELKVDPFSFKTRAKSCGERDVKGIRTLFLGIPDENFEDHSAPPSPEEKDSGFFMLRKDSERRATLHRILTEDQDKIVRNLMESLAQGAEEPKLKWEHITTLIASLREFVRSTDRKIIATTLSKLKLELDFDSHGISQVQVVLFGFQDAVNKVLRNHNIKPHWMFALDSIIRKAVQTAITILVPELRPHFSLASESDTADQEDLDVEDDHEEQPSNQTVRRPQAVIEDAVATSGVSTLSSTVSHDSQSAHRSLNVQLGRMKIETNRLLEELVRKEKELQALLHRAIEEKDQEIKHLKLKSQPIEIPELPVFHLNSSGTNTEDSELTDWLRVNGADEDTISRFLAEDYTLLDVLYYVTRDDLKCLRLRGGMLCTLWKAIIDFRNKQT

[6] = target: Serine/threonine-protein kinase WNK2 (Homo sapiens) (UniProt Q9Y3S1); test: Inhibition of Wnk2 ATP binding site (GSFKTVYK) in human PBMC at 1 uM
Serine/threonine-protein kinase WNK2 (Homo sapiens), sequence (Q9Y3S1 whole entry): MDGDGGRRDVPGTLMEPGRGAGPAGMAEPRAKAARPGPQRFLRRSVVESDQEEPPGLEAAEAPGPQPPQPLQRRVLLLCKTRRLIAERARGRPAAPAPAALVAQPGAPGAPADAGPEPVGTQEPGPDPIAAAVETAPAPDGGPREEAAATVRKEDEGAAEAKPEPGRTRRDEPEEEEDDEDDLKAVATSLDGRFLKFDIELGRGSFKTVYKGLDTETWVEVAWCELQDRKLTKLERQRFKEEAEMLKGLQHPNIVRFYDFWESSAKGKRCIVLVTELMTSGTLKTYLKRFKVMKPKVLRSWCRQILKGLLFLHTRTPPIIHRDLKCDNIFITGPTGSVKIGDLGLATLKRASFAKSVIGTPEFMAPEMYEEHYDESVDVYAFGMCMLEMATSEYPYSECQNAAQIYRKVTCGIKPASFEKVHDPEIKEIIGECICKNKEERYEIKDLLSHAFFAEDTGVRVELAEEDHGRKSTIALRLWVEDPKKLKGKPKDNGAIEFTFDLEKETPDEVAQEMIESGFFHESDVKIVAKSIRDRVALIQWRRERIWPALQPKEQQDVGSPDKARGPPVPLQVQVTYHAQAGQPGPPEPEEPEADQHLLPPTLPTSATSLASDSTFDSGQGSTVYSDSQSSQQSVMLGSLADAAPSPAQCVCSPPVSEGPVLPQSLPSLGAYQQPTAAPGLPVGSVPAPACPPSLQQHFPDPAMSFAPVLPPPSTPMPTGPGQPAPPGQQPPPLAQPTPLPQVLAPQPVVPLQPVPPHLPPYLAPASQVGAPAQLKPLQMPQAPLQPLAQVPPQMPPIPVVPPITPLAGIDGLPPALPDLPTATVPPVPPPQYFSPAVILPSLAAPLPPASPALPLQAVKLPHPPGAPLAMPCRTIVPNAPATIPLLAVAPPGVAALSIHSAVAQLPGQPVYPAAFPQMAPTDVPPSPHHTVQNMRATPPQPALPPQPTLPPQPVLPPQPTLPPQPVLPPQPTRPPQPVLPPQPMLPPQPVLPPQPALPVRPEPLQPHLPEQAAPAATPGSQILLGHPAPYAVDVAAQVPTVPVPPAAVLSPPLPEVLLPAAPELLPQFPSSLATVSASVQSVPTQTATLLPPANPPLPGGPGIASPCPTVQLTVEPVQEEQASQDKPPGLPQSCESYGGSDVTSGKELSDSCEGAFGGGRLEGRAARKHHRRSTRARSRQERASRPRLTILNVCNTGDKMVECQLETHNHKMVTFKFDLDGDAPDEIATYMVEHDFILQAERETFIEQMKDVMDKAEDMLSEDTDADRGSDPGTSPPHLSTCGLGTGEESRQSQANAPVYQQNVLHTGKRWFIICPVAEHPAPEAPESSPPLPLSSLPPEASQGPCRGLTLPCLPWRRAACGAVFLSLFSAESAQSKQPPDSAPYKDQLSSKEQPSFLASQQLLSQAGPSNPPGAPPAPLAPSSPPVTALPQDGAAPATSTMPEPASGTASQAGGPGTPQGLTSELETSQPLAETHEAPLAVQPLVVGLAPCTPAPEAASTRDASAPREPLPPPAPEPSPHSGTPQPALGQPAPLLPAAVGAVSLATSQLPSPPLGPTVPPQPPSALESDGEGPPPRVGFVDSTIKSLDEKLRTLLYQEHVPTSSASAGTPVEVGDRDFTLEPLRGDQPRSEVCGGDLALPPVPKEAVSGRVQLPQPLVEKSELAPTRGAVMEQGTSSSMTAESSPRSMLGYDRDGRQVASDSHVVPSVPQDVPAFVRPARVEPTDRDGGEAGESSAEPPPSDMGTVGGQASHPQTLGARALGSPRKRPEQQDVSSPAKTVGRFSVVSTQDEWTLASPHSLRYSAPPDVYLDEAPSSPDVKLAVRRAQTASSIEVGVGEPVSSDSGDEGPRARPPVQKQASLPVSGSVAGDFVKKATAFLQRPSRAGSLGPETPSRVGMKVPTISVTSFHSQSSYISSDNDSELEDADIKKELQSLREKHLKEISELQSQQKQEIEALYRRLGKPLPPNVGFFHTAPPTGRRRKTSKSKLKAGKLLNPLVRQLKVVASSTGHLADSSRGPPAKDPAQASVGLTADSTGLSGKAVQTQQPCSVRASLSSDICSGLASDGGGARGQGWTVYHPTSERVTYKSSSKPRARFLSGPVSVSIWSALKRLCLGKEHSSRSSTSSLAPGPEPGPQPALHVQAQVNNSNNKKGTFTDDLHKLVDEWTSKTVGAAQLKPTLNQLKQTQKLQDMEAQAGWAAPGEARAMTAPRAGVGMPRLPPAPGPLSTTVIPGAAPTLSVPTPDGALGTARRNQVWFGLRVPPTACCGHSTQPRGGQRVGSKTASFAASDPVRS

[7] = target: Leucine-rich repeat serine/threonine-protein kinase 2 (Homo sapiens, UniProt Q5S007, G2019S); test: Inhibition LRRK2 G2019S mutant (unknown origin) Ser935 phosphorylation in HEK293 cells; type: cell-based
[8] = target: MAP kinase-activated protein kinase 3 (Homo sapiens) (UniProt Q16644); test: Inhibition of MAPKAPK3 ATP binding site (QVLGLGVNGKVLECFHR) in human PBMC at 1 uM
[9] = target: Serine/threonine-protein kinase/endoribonuclease IRE1 (Homo sapiens) (UniProt O75460); test: Inhibition of IRE1 conserved Lys2 (DLKPHNILISMPNAHGK) in human PBMC at 0.1 uM
[10] = target: Mitogen-activated protein kinase kinase kinase 2 (Homo sapiens) (UniProt Q9Y2U5); test: Inhibition of MAP3K2 conserved Lys2 (DIKGANILR) in human PBMC at 1 uM
Mitogen-activated protein kinase kinase kinase 2 (Homo sapiens), sequence (Q9Y2U5 whole entry): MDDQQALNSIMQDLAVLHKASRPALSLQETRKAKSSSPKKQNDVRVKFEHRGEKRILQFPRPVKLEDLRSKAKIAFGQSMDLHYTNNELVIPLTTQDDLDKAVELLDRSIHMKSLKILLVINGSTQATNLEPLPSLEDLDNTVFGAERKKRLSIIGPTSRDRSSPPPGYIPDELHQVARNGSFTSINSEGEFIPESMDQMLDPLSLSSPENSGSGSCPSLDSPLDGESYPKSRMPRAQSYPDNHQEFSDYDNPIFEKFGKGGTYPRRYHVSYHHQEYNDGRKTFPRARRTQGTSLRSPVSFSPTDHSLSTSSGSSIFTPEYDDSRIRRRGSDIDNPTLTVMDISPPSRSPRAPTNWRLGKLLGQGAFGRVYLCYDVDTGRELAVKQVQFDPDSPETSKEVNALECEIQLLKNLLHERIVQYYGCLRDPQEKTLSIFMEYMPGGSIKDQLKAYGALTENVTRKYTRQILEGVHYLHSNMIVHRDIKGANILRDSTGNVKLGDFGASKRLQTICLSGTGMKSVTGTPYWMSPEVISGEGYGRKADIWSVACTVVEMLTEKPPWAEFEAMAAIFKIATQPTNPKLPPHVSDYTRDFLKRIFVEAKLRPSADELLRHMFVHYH

[11] = target: 5'-AMP-activated protein kinase catalytic subunit alpha-1 (Homo sapiens) (UniProt Q13131); test: Inhibition of AMPKa1 labeling at conserved Lys1 (VAVKILNR) in human PBMC at 0.1 uM
5'-AMP-activated protein kinase catalytic subunit alpha-1 (Homo sapiens), sequence (Q13131 whole entry, looked up): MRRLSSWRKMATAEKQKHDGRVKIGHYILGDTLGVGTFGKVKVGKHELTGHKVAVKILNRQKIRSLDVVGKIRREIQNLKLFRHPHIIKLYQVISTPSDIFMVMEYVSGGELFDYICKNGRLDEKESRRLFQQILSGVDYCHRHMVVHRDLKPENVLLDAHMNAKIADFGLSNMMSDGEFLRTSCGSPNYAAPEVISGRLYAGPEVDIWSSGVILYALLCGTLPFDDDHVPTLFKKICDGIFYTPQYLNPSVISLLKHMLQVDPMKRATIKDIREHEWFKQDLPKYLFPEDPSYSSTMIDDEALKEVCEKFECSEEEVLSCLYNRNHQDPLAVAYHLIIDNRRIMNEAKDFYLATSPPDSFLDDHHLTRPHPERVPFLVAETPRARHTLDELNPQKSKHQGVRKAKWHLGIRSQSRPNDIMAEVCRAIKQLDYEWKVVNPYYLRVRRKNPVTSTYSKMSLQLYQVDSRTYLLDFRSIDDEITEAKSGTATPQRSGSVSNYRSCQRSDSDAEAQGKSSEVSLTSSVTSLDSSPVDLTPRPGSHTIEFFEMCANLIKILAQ

[12] = target: Cyclin-dependent kinase 2 (Homo sapiens) (UniProt P24941); test: Inhibition of CDK2 labeling at conserved Lys1 (LTGEVVALKK) in human PBMC at 0.1 uM
[13] = target: Ribosomal protein S6 kinase alpha-1 (Homo sapiens) (UniProt Q15418); test: Inhibition of RSK1 conserved Lys2 (DLKPENILLDEEGHIK) in human PBMC at 1 uM; settings: pooled result: one value given for 4 cell lines, strains, targets or settings

Kinase suppressor of Ras 1 (Homo sapiens), sequence (Q8IVT5 whole entry): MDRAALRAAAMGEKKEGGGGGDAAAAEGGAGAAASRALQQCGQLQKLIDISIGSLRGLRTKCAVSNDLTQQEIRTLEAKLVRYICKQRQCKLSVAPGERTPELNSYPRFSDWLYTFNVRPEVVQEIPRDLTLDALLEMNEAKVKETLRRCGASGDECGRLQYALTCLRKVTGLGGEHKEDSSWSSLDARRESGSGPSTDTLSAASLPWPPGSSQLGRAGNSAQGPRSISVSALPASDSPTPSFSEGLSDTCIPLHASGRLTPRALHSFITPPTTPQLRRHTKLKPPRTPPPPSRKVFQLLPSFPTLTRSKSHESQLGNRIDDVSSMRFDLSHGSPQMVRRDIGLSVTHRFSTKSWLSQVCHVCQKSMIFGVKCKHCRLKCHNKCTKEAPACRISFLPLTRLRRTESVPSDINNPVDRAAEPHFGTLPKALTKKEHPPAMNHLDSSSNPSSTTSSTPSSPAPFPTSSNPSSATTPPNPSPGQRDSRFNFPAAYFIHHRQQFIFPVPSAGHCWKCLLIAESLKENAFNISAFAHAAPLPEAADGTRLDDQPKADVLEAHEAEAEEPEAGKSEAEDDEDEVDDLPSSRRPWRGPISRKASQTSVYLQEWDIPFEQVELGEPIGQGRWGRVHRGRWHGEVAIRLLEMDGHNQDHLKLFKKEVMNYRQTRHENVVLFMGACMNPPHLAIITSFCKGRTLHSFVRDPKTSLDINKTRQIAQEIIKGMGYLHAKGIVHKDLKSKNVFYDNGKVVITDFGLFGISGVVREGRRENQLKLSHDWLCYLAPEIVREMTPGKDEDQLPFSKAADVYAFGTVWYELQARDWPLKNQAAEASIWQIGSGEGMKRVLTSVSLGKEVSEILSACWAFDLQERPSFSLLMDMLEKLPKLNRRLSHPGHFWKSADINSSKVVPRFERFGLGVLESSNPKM
Serine/threonine-protein kinase TBK1 (Homo sapiens), sequence (Q9UHD2 whole entry): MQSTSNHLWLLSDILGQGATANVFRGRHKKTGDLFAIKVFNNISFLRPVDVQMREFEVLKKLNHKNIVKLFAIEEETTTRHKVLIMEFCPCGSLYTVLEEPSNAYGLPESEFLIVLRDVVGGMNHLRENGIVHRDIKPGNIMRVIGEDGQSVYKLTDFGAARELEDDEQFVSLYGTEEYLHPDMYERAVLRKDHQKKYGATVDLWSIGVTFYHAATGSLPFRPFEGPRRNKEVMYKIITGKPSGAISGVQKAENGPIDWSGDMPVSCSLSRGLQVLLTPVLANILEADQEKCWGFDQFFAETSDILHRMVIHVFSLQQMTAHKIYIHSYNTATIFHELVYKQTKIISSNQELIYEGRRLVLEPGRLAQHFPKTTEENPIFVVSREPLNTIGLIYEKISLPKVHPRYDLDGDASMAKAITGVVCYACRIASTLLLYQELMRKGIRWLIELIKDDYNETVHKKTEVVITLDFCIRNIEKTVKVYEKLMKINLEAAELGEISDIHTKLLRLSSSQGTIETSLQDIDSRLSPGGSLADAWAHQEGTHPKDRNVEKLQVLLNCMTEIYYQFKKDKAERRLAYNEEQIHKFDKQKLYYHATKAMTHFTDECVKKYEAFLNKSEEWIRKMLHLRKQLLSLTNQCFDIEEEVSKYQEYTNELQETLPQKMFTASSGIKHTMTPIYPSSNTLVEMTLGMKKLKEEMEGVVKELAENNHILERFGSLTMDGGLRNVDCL

SMILES: CC(C)n1cc(-c2cc(-c3ccc(CN4CCOCC4)cc3)cnc2N)nn1
- inhibition [1]: 20.4%
- inhibition [2]: 21.7%
- inhibition [3]: -6%
- inhibition [4]: 26.4%
- inhibition [5]: -3.3%
- inhibition [6]: 14.2%
- IC50 [7]: 920 nM
- inhibition [8]: 2.5%
- inhibition [9]: 22.1%
- inhibition [10]: 29.2%
- inhibition [11]: 7.7%
- inhibition [12]: 23.4%
- inhibition [13]: 10.2%

— ChEMBL document CHEMBL4043168, “The design and SAR of a novel series of 2-aminopyridine based LRRK2 inhibitors” (Bioorg Med Chem Lett, 2017)
